# According to patent publication US7122518B2, “Method for preventing or reducing collateral phototoxic damage to neighboring tissues during photodynamic therapy of a target tissue” (New York University, priority 2002, dated 2006):
# Entries after “also recorded” stand apart in the source; their conditions may differ. Where two headings read alike, the source gives them in different places.
# Tests used:
# [1] = test system: ARPE cells; experiment: Competitive quenching by hypericin versus DTHe in ARPE cells (Hemacolor viability); conditions: for cell viability: 1.73 J/cm^2, Hemacolor after 24 hrs (FIG. 7A)
# Procedure: The cells were treated with the added dianthraquinone compounds for 3 hrs. and with added verteporfin for the last two hrs. The cells were then exposed to 1.73 J/cm^2 of light irradiation at >650 nm and cell viability monitored after 24 hrs. in culture.
# (§1) For the Hemacolor assay the cells were fixed with methanol, stained with Hemacolor reagents (Merck, Darmstadt, Germany), the dye eluted and quantified in an ELISA reader at 650 nm. PDT efficacy was expressed as percentage of viable cells in treated wells relative to untreated controls, calculated as (OD650, treated/OD650, untreated)×100.
# ARPE or EH endothelial hybridoma cells were seeded at 5×10^4 cells/well in 96 well flat bottom microplates. The cells were allowed to adhere overnight, after which time DTHe or hypericin were added to ARPE cells (FIG. 7A) or to endothelial hybridoma cells (FIG. 7B) at concentrations of 10 or 20 μg/ml and the cells incubated at 37° C. in complete darkness. After one hour incubation with hypericin, verteporfin at concentrations of 0.1, 0.25 and 0.5 μg/ml was added to the cultures, which were then incubated at 37° C. for two additional hours. The supernatants were removed, the cells washed with PBS and the cultures exposed to light irradiation at a dose of 1.73 J/cm^2 at 689 nm. The cultures were then incubated at 37° C. for an additional 24 hrs and cell viability was then determined via the hemacolor assay.
# [2] = test system: ARPE-19 cells; experiment: Protection of ARPE cells from verteporfin-induced phototoxicity (MTT viability); conditions: for viability at 20 µM: Homo sapiens, ARPE-19, light or radiation study
# Procedure: ARPE or EH cells were plated in 96 well flat bottom microplates 2×10^4 cells/well. The cells were allowed to attach to the plate surface and hypericin was added to the cultures in complete darkness (ambient light kept below <0.03 mW/cm^2 to prevent hypericin-mediated phototoxicity) for time intervals ranging from 3–6 hrs. Verteporfin was then added and was present for the last two hours of the incubation period. At the end of incubation period, the growth medium containing hypericin and verteporfin was removed and replaced with phosphate buffered saline (PBS) and then photosensitized with red light using a fiber-optic non-coherent light delivery system (SeNet Ltd, Israel) in combination with K700 broadband interference filter with central wavelengths at 700 nm and half-height bandwidth of ±40 nm (Rolyn Optics, Covina, Calif.) to selectively excite verteporfin but not hypericin (excitable at 546 and 590 nm). […] The fluence rate (mW/cm^2) was measured with a Model IL 1400A radiometer/photometer (International Light Inc., Newburyport, Mass.).
# Two methods have been used to monitor cell viability: the MTT assay which measures reduction of MTT to formasan by mitochondria of viable cells and by the Hemacolor assay, a calorimetric microtiter assay that quantifies the amount of dye that binds to viable adherent cells (Keisari, 1992). […] MTT was added to the cells following light irradiation and the plates were incubated for three hours and then analyzed in an ELISA reader at 560 nm. […]
# In order to examine whether the red/ox properties of hypericin in the dark can impact on the phototoxic properties of verteporfin (VP), retinal pigmented epithelial cells (ARPE-19) in monolayer cultures were loaded with hypericin by exposure to 5, 10 and 20 μM of this compound for three and six hrs. […] Following irradiation, drug-free fresh medium was introduced, the cells incubated at 37° C. in a 5% CO2 incubator for additional 24 hrs and cell viability then monitored using the MTT assay.
# [3] = test system: EH endothelial cells; experiment: Protection of EH endothelial cells from verteporfin-induced phototoxicity (viability); conditions: for viability at 20 µM: Homo sapiens, Endothelial cell, light or radiation study
# Procedure: ARPE or EH cells were plated in 96 well flat bottom microplates 2×10^4 cells/well. The cells were allowed to attach to the plate surface and hypericin was added to the cultures in complete darkness (ambient light kept below <0.03 mW/cm^2 to prevent hypericin-mediated phototoxicity) for time intervals ranging from 3–6 hrs. Verteporfin was then added and was present for the last two hours of the incubation period. At the end of incubation period, the growth medium containing hypericin and verteporfin was removed and replaced with phosphate buffered saline (PBS) and then photosensitized with red light using a fiber-optic non-coherent light delivery system (SeNet Ltd, Israel) in combination with K700 broadband interference filter with central wavelengths at 700 nm and half-height bandwidth of ±40 nm (Rolyn Optics, Covina, Calif.) to selectively excite verteporfin but not hypericin (excitable at 546 and 590 nm). The cultures were then returned to standard growth medium, cultured for 24 hrs in a 37° C., 5% CO2 and cell viability then assayed by the MTT or Hemacolor assays. The fluence rate (mW/cm^2) was measured with a Model IL 1400A radiometer/photometer (International Light Inc., Newburyport, Mass.).
# Two methods have been used to monitor cell viability: the MTT assay which measures reduction of MTT to formasan by mitochondria of viable cells and by the Hemacolor assay, a calorimetric microtiter assay that quantifies the amount of dye that binds to viable adherent cells (Keisari, 1992). The cells were plated in flat-bottomed 96 well plates in 200 μl medium containing the photosensitizer. MTT was added to the cells following light irradiation and the plates were incubated for three hours and then analyzed in an ELISA reader at 560 nm. Corrections were made for non-specific absorption of MTT subtracting background values generated in cell free blank wells containing medium and HY at each dose level and MTT.
# as §1
# EH cells were used for this purpose.
# [4] = Hypericin distribution among the layers of the retina after i.v. administration
# Procedure: Rats were sacrificed at 15 min, 2 hrs, 6 hrs and 8 hrs after i.v. administration of hypericin, 2 mg/kg. The eyes were enucleated and frozen initially at −80° C. and subsequently in liquid nitrogen and several cryostat sections (5-μm width) sliced from each sample. To prevent hypericin extraction from the retinal tissues during staining the histological tissue distribution of hypericin among the different layers of the retina was initially examined under an Olympus phase contrast and fluorescence microscope, and the data photographed with a computer-linked digital camera (Multipixel Spectral Imaging System, Applied Spectral Imaging Inc., Israel. Hypericin was excited at 477 nm and its fluorescence recorded by documenting emission intensity at 602 nm. The photographed locations were marked and the sections then stained with Hematoxylin-eosin (H&E) for confirmation of retinal layer identity and compared to the corresponding fluorescence and light microscopy images.
# Hypericin at a dose of 2 mg/kg was administered to the tail vein. At 15 minutes, 2, 4, 6 and 8 hrs the rats were anesthesized, the eyes enucleated and frozen sections prepared. The sections were then analyzed by Multipixel Spectral Imaging.
# [5] = Biodistribution of hypericin in tissues of tumor-bearing mice (fluorescence); format: in vivo; conditions: BALB/c mice bearing breast adenocarcinoma tumors, preliminary (FIG. 5)
# Procedure: The present inventor aimed to overcome this obstacle by using pharmacokinetic considerations. Hypericin is a lipophilic agent with an alpha half life of approximately 1–2 hours in the circulation. […] It is therefore possible to generate conditions in which hypericin has cleared from the circulation and concentrated in the tissues where it can be useful in protecting from collateral photodynamic damage.
# [6] = cited from earlier work
# [7] = in vivo, iv; cited from earlier work
# [8] = verteporfin 0.25 μg/ml plus quencher 10 μg/ml
# [9] = verteporfin 0.25 μg/ml plus quencher 20 μg/ml
compound,measurement,setting,value
"Cc1ccc2c(=O)c3c(O)cc(O)c4c5c(O)cc(O)c6c(=O)c7ccc(C)cc7c(c65)c(c2c1)c34 [DTHe, dimethyl tetrahydroxy helianthrone]",competitive quenching of verteporfin-mediated phototoxicity relative to hypericin,"[1]; ARPE cells, 10 and 20 μg/ml",much less effective
same,cell viability,[1]; [8],7.5%
same,cell viability,[1]; [9],6%
Cc1cc(O)c2c(=O)c3c(O)cc(O)c4c5c(O)cc(O)c6c(=O)c7c(O)cc(C)c8c1c2c(c34)c(c78)c65 [hypericin],viability at 20 µM,"[2]; read-out: percent cell viability, verteporfin 0.25 μg/ml plus hypericin 20 μM, 0.75 J/cm^2 >650 nm (FIG. 2A)",60%
same,viability at 20 µM,"[2]; read-out: percent cell viability, verteporfin 0.5 μg/ml plus hypericin 20 μM, 0.75 J/cm^2 >650 nm (FIG. 2A)",25%
same,cell viability preserved,"[2]; verteporfin 2 μg/ml, hypericin loaded before photosensitization, RPE or endothelial cells, cell line not specified",up to 46.8%
same,viability at 20 µM,"[3]; read-out: EH cell viability, verteporfin 0.1 μg/ml plus hypericin 20 μM, 0.96 J/cm^2 (FIG. 3A)",73%
same,viability at 20 µM,"[3]; read-out: EH cell viability, verteporfin 0.25 μg/ml plus hypericin 20 μM, 0.96 J/cm^2 (FIG. 3A)",81%
same,viability at 20 µM,"[3]; read-out: EH cell viability, verteporfin 0.5 μg/ml plus hypericin 20 μM, 0.96 J/cm^2 (FIG. 3A)",49%
same,EH cell protection from verteporfin-induced phototoxicity,"[3]; higher doses of light irradiation, 1.73 J/cm^2 (FIG. 3B)","also maintained at higher doses of light irradiation, yet the absolute levels of protection declined"
same,cell viability,[1]; [8],35%
same,cell viability,[1]; [9],32%
same,retinal distribution of hypericin fluorescence,"[4]; 15 minutes after 2 mg/kg i.v., rats (FIG. 6A)",confined to the choroidal blood vessels; also recorded: confined mainly to the vasculature
same,retinal distribution of hypericin fluorescence,"[4]; 2 hrs after 2 mg/kg i.v., rats (FIG. 6B)",spreads to the entire retina; also recorded: extravasated to the surrounding tissue was less evident within the vasculature and spread through the choroid
same,retinal distribution of hypericin fluorescence,"[4]; 6 hrs after 2 mg/kg i.v., rats (FIG. 6C)",present only in the retina and not in the blood vessels; also recorded: spread to the entire retina
same,confinement to the choroidal vasculature,[4]; after i.v. administration to rats (discussion),mainly confined to the choroidal vasculature for up to one hour
same,bioavailability to the retina,"[4]; hypericin 2 mg/kg i.v. tail vein, rats",bioavailable to the retina
same,clearance from choroidal vessels and tissue accumulation,"[4]; rat, in vivo, iv",beyond 2 hrs was cleared from the choroidal vessels and accumulated in the extravascular choroid and RPE
same,tissue biodistribution,[5],sequester in various tissues for many hours
same,alpha half-life in the circulation,[6]; circulation,1 to 2 h
same,elimination half-life,"[6]; human, in vivo",~48 h
same,gamma elimination half life from tissues,[6]; in vivo,approximately 48 hrs
verteporfin,time remaining in the intravascular compartment,[7],30 min
